Experimental data from US20210261512A1, “NOVEL COMPOUNDS” (INFLAZOME LIMITED, priority 2018, published 2021).

How the values were obtained:
[1] = biological target: T1, NLRP3 (Homo sapiens, UniProt Q96P20); experiment: THP-1 cells pyroptosis assay; assay type: cell-based; design: Seed THP-1 cells (25,000 cells/well) containing 1.0 μg/ml LPS; host or cells: THP-1; details: LPS 1.0 μg/ml, nigericin 5 μM, resazurin readout, 10 μM top dose (Example 2: top dose of 30 μM)
In short: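 THP-1 cells (25,000/well) primed with 1 μg/ml LPS in serum-free RPMI, treated with compound (8-point dilution, 10 μM top unless stated; 0.1% DMSO) 3 h at 37°C, then nigericin 5 μM 1 h. Viability read by resazurin (100 μM, 1-2 h) fluorescence; IC50 from 4-parameter fit.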

[2] = biological target: T1, NLRP3; experiment: Human whole blood IL1β release assay; assay type: cell-based; details: LPS 1 μg/ml, nigericin 10 μM, IL-1β AlphaLisa, 10 μM top dose (Example 2: top dose of 30 μM), read-out: HWB IC50
In short: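 Healthy-donor heparinised human whole blood with 1 μg/ml LPS, compound (8-point half-log dilution, 10 μM top dose unless stated; 0.1% DMSO vehicle) for 3 h at 37 °C, then nigericin 10 μM final for 1 h. Supernatant IL-1β by AlphaLISA; IC50 from 4-parameter variable-slope fit.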

T1 sequence (Q96P20 whole entry): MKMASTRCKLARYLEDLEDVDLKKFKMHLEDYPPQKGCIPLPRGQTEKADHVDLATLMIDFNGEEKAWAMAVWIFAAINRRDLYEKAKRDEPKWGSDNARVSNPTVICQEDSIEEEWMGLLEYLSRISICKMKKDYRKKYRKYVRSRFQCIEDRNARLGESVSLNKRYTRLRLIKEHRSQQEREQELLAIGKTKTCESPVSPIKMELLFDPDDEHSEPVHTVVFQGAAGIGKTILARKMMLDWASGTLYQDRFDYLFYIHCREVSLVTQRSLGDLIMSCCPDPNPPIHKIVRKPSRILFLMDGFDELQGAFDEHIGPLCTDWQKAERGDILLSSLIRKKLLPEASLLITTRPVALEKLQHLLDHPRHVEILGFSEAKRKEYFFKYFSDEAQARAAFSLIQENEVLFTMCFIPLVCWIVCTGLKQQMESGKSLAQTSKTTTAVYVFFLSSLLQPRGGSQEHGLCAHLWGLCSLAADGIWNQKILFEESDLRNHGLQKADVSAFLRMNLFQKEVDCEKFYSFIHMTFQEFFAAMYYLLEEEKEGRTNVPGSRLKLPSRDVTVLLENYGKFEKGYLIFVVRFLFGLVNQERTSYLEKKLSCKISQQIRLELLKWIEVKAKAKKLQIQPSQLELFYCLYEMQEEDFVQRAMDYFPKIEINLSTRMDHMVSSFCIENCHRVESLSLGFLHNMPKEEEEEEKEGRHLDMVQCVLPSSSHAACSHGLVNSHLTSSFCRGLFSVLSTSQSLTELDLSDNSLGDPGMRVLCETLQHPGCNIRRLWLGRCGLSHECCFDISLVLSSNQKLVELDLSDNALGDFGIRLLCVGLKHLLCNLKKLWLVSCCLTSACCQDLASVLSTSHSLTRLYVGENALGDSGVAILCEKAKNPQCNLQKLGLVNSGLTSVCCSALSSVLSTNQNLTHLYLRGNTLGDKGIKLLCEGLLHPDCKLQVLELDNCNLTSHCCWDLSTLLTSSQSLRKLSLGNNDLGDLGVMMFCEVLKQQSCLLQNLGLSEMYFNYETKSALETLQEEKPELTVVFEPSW

Row | IC50 [1] | IC50 [2] | SMILES
1 | ≤ 500 nM | ≤ 10000 nM | CC(O)Cn1ccc(S(=O)(=O)c2nnc(Nc3c4c(cc5c3CCC5)CCC4)[nH]2)n1 (stereo not drawn) [Example 352, 1-(3-((5-((1,2,3,5,6,7-hexahydro-s-indacen-4-yl)amino)-4H-1,2,4-triazol-3-yl)sulfonyl)-1H-pyrazol-1-yl)propan-2-ol]
2 | ≤ 1000 nM | ≤ 10000 nM | O=S(=O)(c1nnc(Nc2c3c(cc4c2CCC4)CCC3)[nH]1)c1ccccc1F [Example 179, 5-((2-fluorophenyl)sulfonyl)-N-(1,2,3,5,6,7-hexahydro-s-indacen-4-yl)-4H-1,2,4-triazol-3-amine]
3 | ≤ 500 nM | ≤ 5000 nM | O=S(=O)(c1nnc(Nc2c3c(cc4c2CCC4)CCC3)[nH]1)N1CCC2(CCOC2)CC1 [Example 360, 5-((2-oxa-8-azaspiro[4.5]decan-8-yl)sulfonyl)-N-(1,2,3,5,6,7-hexahydro-s-indacen-4-yl)-4H-1,2,4-triazol-3-amine]
4 | ≤ 1000 nM | ≤ 5000 nM | CC(C)(O)C1CCN(S(=O)(=O)c2nnc(Nc3c4c(cc5c3CCC5)CCC4)[nH]2)C1 (stereo not drawn) [Example 289, 2-(1-((5-((1,2,3,5,6,7-hexahydro-s-indacen-4-yl)amino)-4H-1,2,4-triazol-3-yl)sulfonyl)pyrrolidin-3-yl)propan-2-ol]
5 | ≤ 1000 nM | ≤ 10000 nM | CN1CCCC(CNS(=O)(=O)c2nnc(Nc3c4c(cc5c3CCC5)CCC4)[nH]2)C1 (stereo not drawn) [Example 128, 5-((1,2,3,5,6,7-hexahydro-s-indacen-4-yl)amino)-N-((1-methylpiperidin-3-yl)methyl)-4H-1,2,4-triazole-3-sulfonamide]
6 | ≤ 1000 nM | ≤ 5000 nM | COc1cc(-c2ccc3c(c2Nc2nnc(S(=O)(=O)c4ccn(C(C)C)n4)[nH]2)CCC3)ccn1 [Example 34, 5-((1-isopropyl-1H-pyrazol-3-yl)sulfonyl)-N-(5-(2-methoxypyridin-4-yl)-2,3-dihydro-1H-inden-4-yl)-4H-1,2,4-triazol-3-amine]
7 | ≤ 10000 nM | ≤ 30000 nM | O=S(=O)(Cc1ccccc1)c1nnc(Nc2c3c(cc4c2CCC4)CCC3)[nH]1 [Example 2, 5-(benzylsulfonyl)-N-(1,2,3,5,6,7-hexahydro-s-indacen-4-yl)-4H-1,2,4-triazol-3-amine]
8 | ≤ 5000 nM | ≤ 5000 nM | CN(C)C1CN(S(=O)(=O)c2nnc(Nc3c4c(cc5c3CCC5)CCC4)[nH]2)C1 [Example 91, 5-((3-(dimethylamino)azetidin-1-yl)sulfonyl)-N-(1,2,3,5,6,7-hexahydro-s-indacen-4-yl)-4H-1,2,4-triazol-3-amine]
9 | ≤ 500 nM | ≤ 1000 nM | CN(C)C1CCN(S(=O)(=O)c2nnc(Nc3c(-c4ccncc4)ccc4c3CCC4)[nH]2)CC1 [Example 219, N,N-dimethyl-1-((5-((5-(pyridin-4-yl)-2,3-dihydro-1H-inden-4-yl)amino)-4H-1,2,4-triazol-3-yl)sulfonyl)piperidin-4-amine]
10 | ≤ 500 nM | ≤ 5000 nM | CN1CCCNC(=O)C12CCN(S(=O)(=O)c1nnc(Nc3c4c(cc5c3CCC5)CCC4)[nH]1)CC2 [Example 294, 3-((5-((1,2,3,5,6,7-hexahydro-s-indacen-4-yl)amino)-4H-1,2,4-triazol-3-yl)sulfonyl)-7-methyl-3,7,11-triazaspiro[5.6]dodecan-12-one]
11 | ≤ 500 nM | ≤ 1000 nM | CN1CCC12CCN(S(=O)(=O)c1nnc(Nc3c(-c4ccnc(OC(F)F)c4)ccc4c3CCO4)[nH]1)CC2 [Example 202, N-(5-(2-(difluoromethoxy)pyridin-4-yl)-2,3-dihydrobenzofuran-4-yl)-5-((1-methyl-1,7-diazaspiro[3.5]nonan-7-yl)sulfonyl)-4H-1,2,4-triazol-3-amine]
12 | ≤ 5000 nM | ≤ 1000 nM | CN1CCC2(CC1)CN(S(=O)(=O)c1nnc(Nc3c4c(cc5c3CCC5)CCC4)[nH]1)C2 [Example 275, N-(1,2,3,5,6,7-hexahydro-s-indacen-4-yl)-5-((7-methyl-2,7-diazaspiro[3-5]nonan-2-yl)sulfonyl)-4H-1,2,4-triazol-3-amine]
13 | ≤ 500 nM | ≤ 5000 nM | CN1CCCC12CCN(S(=O)(=O)c1nnc(Nc3c(-c4ccnc(OC(F)F)c4)ccc4c3CCO4)[nH]1)CC2 [Example 210, N-(5-(2-(difluoromethoxy)pyridin-4-yl)-2,3-dihydrobenzofuran-4-yl)-5-((1-methyl-1,8-diazaspiro[4.5]decan-8-yl)sulfonyl)-4H-1,2,4-triazol-3-amine]
14 | ≤ 500 nM | ≤ 500 nM | CCN1CCC12CCN(S(=O)(=O)c1nnc(Nc3c4c(cc5c3CCC5)CCC4)[nH]1)CC2 [Example 257, 5-((1-ethyl-1,7-diazaspiro[35]nonan-7-yl)sulfonyl)-N-(1,2,3,5,6,7-hexahydro-s-indacen-4-yl)-4H-1,2,4-triazol-3-amine]
15 | ≤ 500 nM | ≤ 10000 nM | O=S(=O)(c1nnc(Nc2c3c(cc4c2CCC4)CCC3)[nH]1)N1CC(N2CCCCC2)C1 [Example 133, N-(1,2,3,5,6,7-hexahydro-s-indacen-4-yl)-5-((3-(piperidin-1-yl)azetidin-1-yl)sulfonyl)-4H-1,2,4-triazol-3-amine]
16 | ≤ 500 nM | ≤ 5000 nM | COc1cc(-c2ccc3c(c2Nc2nnc(S(=O)(=O)N4CCC5(CCN5C)CC4)[nH]2)CCO3)ccn1 [Example 203, N-(5-(2-methoxypyridin-4-yl)-2,3-dihydrobenzofuran-4-yl)-5-((1-methyl-1,7-diazaspiro[3.5]nonan-7-yl)sulfonyl)-4H-1,2,4-triazol-3-amine]
17 | ≤ 500 nM | ≤ 1000 nM | CC(C)c1cc(F)cc(C(C)C)c1Nc1nc(S(=O)(=O)N2CCC(CN(C)C)C2)n[nH]1 (stereo not drawn) [Example 241, 3-((3-((dimethylamino)methyl)pyrrolidin-1-yl)sulfonyl)-N-(4-fluoro-2,6-diisopropylphenyl)-1H-1,2,4-triazol-5-amine]
18 | ≤ 1000 nM | ≤ 5000 nM | CCN(CC)CCS(=O)(=O)c1nnc(Nc2c3c(cc4c2CCC4)CCC3)[nH]1 [Example 46, 5-((2-(diethylamino)ethyl)sulfonyl)-N-(1,2,3,5,6,7-hexahydro-s-indacen-4-yl)-4H-1,2,4-triazol-3-amine]
19 | ≤ 500 nM | ≤ 500 nM | [2H]C([2H])([2H])Oc1cc(-c2ccc3c(c2Nc2nnc(S(=O)(=O)N4CCC(N(C)C)CC4)[nH]2)CCO3)ccn1 [Example 218, 1-((5-((5-(2-(methoxy-d)pyridin-4-yl)-2,3-dihydrobenzofuran-4-yl)amino)-4H-1,2,4-triazol-3-yl)sulfonyl)-N,N-dimethylpiperidin-4-amine]
20 | ≤ 500 nM | ≤ 5000 nM | O=S(=O)(NCCN1CCCC1)c1nnc(Nc2c3c(cc4c2CCC4)CCC3)[nH]1 [Example 108, 5-((1,2,3,5,6,7-hexahydro-s-indacen-4-yl)amino)-N-(2-(pyrrolidin-1-yl)ethyl)-4H-1,2,4-triazole-3-sulfonamide]
21 | ≤ 5000 nM | ≤ 10000 nM | O=S(=O)(c1nnc(Nc2c3c(cc4c2CCC4)CCC3)[nH]1)N1CC2(CCOC2)C1 [Example 146, 5-(6-oxa-2-azaspiro[3.4]octan-2-ylsulfonyl)-N-(1,2,3,5,6,7-hexahydro-s-indacen-4-yl)-4H-1,2,4-triazol-3-amine]
22 | ≤ 500 nM | ≤ 500 nM | CCN1CCC2(C1)CN(S(=O)(=O)c1nnc(Nc3c4c(cc5c3CCC5)CCC4)[nH]1)C2 [Example 240, 5-((6-ethyl-2,6-diazaspiro[3.4]octan-2-yl)sulfonyl)-N-(1,2,3,5,6,7-hexahydro-s-indacen-4-yl)-4H-1,2,4-triazol-3-amine]
23 | ≤ 500 nM | ≤ 500 nM | [2H]C([2H])([2H])Oc1cc(-c2ccc3c(c2Nc2nnc(S(=O)(=O)N4CC5(CCN(C)C5)C4)[nH]2)CCC3)ccn1 [Example 196, N-(5-(2-(methoxy-d)pyridin-4-yl)-2,3-dihydro-1H-inden-4-yl)-5-((6-methyl-2,6-diazaspiro[3.4]octan-2-yl)sulfonyl)-4H-1,2,4-triazol-3-amine]
24 | ≤ 500 nM | ≤ 500 nM | CC(C)c1cc(F)cc(C(C)C)c1Nc1nnc(S(=O)(=O)N2CC3(CCN(C)C3)C2)[nH]1 [Example 242, N-(4-fluoro-2,6-diisopropylphenyl)-5-((6-methyl-2,6-diazaspiro[3.4]octan-2-yl)sulfonyl)-4H-1,2,4-triazol-3-amine]
25 | ≤ 1000 nM | ≤ 5000 nM | Cc1cc2c(c(Nc3nnc(S(C)(=O)=O)[nH]3)c1-c1ccnc(OC3CCN(C)CC3)c1)CCC2 [Example 317, N-(6-methyl-5-(2-((1-methylpiperidin-4-yl)oxy)pyridin-4-yl)-2,3-dihydro-1H-inden-4-yl)-5-(methylsulfonyl)-4H-1,2,4-triazol-3-amine]
26 | ≤ 500 nM | ≤ 1000 nM | CN1CCOC2(C1)CN(S(=O)(=O)c1nnc(Nc3c4c(cc5c3CCC5)CCC4)[nH]1)C2 [Example 295, N-(1,2,3,5,6,7-hexahydro-s-indacen-4-yl)-5-((8-methyl-5-oxa-2,8-diazaspiro[3-5]nonan-2-yl)sulfonyl)-4H-1,2,4-triazol-3-amine]
27 | ≤ 500 nM | ≤ 500 nM | CN1CC2(C1)CN(S(=O)(=O)c1nnc(Nc3c4c(cc5c3CCC5)CCC4)[nH]1)C2 [Example 137, N-(1,2,3,5,6,7-hexahydro-s-indacen-4-yl)-5-((6-methyl-2,6-diazaspiro[3.3]heptan-2-yl)sulfonyl)-4H-1,2,4-triazol-3-amine]
